This assay has as its target T1, glutaminase (GAC) (Homo sapiens, UniProt O94925).
T1 sequence (O94925 55-598 isoform O94925-3 limits assumed): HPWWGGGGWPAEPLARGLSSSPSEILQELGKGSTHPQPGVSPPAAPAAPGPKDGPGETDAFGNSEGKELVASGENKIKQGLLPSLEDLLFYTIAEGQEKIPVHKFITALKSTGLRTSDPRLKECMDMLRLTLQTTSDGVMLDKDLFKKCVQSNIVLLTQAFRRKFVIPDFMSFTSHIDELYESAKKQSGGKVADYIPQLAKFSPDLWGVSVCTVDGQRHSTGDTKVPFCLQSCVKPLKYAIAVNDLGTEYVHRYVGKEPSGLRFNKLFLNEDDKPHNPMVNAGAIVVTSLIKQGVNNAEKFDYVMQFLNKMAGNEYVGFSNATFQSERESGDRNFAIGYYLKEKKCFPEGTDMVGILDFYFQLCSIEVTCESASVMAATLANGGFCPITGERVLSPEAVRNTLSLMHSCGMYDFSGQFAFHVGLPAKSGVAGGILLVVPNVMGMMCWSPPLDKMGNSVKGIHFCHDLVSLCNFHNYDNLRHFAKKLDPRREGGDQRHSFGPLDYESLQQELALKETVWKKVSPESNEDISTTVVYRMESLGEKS
The assay is described as follows: Glutaminase coupled endpoint enzymatic assay (Example A). Format: biochemical. The settings on record: inhibition of glutaminase; assay of Example A or Example B. From the text:
In certain embodiments, exemplary compounds of Formula I include the compounds described in Table 1 and in the Examples. A compound described herein may be tested for its ability to inhibit glutaminase, e.g., by an assay as described in the Examples. For simplicity, the inhibition activity of these compounds is represented as an IC50 tested in an assay of Example A or Example B in Table 1. […] “N/A” refers to compounds wherein the IC50 is unavailable.
In this example, the enzymatic activity of glutaminase is measured through a coupled endpoint assay. Glutamine and phosphate are supplied to GAC at a concentration equal to Km and AC50, respectively, and GAC concentration is adjusted to give a linear reaction for 60 minutes. The glutamate produced is converted to 2-OG by a kinetic excess of glutamate dehydrogenase. This second step is configured for 2×Km for NAD, since excess NAD is inhibitory. However, a kinetic excess of the third coupling enzyme, diaphorase, recycles NAD from NADH to keep the NAD concentration constant during the timecourse of the assay. Diaphorase, also supplied in kinetic excess, oxidizes NADH produced by GDH back to NAD with the concomitant reduction of rezasurin to the highly fluorescent resorufin. Resorufin in measured after the assay is stopped with SDS by Ex544/Em590. A reduction in the signal indicates inhibition of some component of the coupled enzyme system. Prospective hits are counterscreened against GDH/diaphorase alone to remove hits to the coupling enzyme system in a second assay.
2. Buffers • 2× Buffer (300 mM NaCl, 100 mM HEPES pH 8.5, 0.1% BSA, 0.5 mM EDTA, 100 mM sodium phosphate pH 8.5) • 5× Substrate Mix (1× Buffer final concentration, with 13 mM glutamine, 100 μM resazurin, 50 μg/ml diaphorase) • 1.2× Enzyme Mix (1× Buffer final concentration, with 0.875 μg/ml GAC, 1.56 mM NAD, 6.25 units/ml GDH) • Stop Mix (6% SDS in ddH2O) Reaction Procedure • 1. Add 1 μl compound in 100% DMSO • 2. Add 40 μl of Enzyme Mix and incubate for 60 minute at room temperature • 3. Add 10 μl of Substrate Mix to start reaction • 4. Stop reaction with 25 μl of 6% SDS and read Ex544 Em 590

Consider 25 molecules from patent publication US9029531B2 (Agios Pharmaceuticals, Inc., priority 2012, dated 2015).

As usually defined, the IC50 is the concentration at which inhibition is half-maximal. Read a high IC50 as a need for much substance.

For `NCc1cccc(CC(=O)Nc2nnc([C@H]3CCC[C@H](c4nnc(NC(=O)Cc5cccc(CN)c5)s4)C3)s2)c1` [Compound 245, N,N′-(5,5′-((1S,3S)-cyclohexane-1,3-diyl)bis(1,3,4-thiadiazole-5,2-diyl))bis(2-(3-(aminomethyl)phenyl)acetamide)], the half-maximal inhibitory concentration (IC50) was less than 100 nM.

The molecule `O=C(Cc1cc(N2CC(O)C2)ccn1)Nc1nnc([C@H]2CCC[C@H](c3nnc(NC(=O)Cc4cc(N5CC(O)C5)ccn4)s3)C2)s1` [Compound 255, N,N′-(5,5′-((1S,3S)-cyclohexane-1,3-diyl)bis(1,3,4-thiadiazole-5,2-diyl))bis(2-(4-(3-hydroxyazetidin-1-yl)pyridin-2-yl)acetamide)] showed a concentration for half-maximal inhibition (IC50) of 100 to 500 nM.

Turning to `O=C(Cc1ccccn1)Nc1nnc(C[C@H]2C[C@@H]2Cc2nnc(NC(=O)Cc3ccccn3)s2)s1` (racemic) [Compound 3, N,N′-(5,5′-(trans-cyclopropane-1,2-diylbis(methylene))bis(1,3,4-thiadiazole-5,2-diyl))bis(2-(pyridin-2-yl)acetamide)], the IC50 fell in the range of 500 to 1000 nM.

`CN(C)C(=O)c1ccc(CC(=O)Nc2nnc([C@H]3CCC[C@H](c4nnc(NC(=O)Cc5ccc(C(=O)N(C)C)cn5)s4)C3)s2)nc1` [Compound 234, 6-[[5-[3-[5-[[2-[5-(dimethylcarbamoyl)pyridin-2-yl]acetyl]amino]-1,3,4-thiadiazol-2-yl]cyclohexyl]-1,3,4-thiadiazol-2-yl]carbamoylmethyl]-N,N-dimethyl-pyridine-3-carboxamide] displayed a half-inhibitory concentration (IC50) of 100 to 500 nM.

The molecule `O=C(Cc1ccc(N2CC(F)(F)C2)cc1)Nc1nnc([C@H]2CCC[C@H](c3nnc(NC(=O)Cc4ccc(N5CC(F)(F)C5)cc4)s3)C2)s1` [Compound 266, N,N′-(5,5′-((1S,3S)-cyclohexane-1,3-diyl)bis(1,3,4-thiadiazole-5,2-diyl))bis(2-(4-(3,3-difluoroazetidin-1-yl)phenyl)acetamide)] displayed an IC50 of less than 100 nM.

In turn, `O=C(Cc1cccc(N2CC(F)(F)C2)n1)Nc1nnc([C@H]2CC[C@H](c3nnc(NC(=O)Cc4cccc(N5CC(F)(F)C5)n4)s3)C2)s1` [Compound 288, N,N′-(5,5′-((1S,3S)-cyclopentane-1,3-diyl)bis(1,3,4-thiadiazole-5,2-diyl))bis(2-(6-(3,3-difluoroazetidin-1-yl)pyridin-2-yl)acetamide)] came in with an IC50 of less than 100 nM.

Consider `N#Cc1ccc(CC(=O)Nc2nnc(C3CCC(c4nnc(NC(=O)Cc5ccc(C#N)cc5)s4)C3)s2)cc1` (stereo not shown) [Compound 96], for which the IC50 fell in the range of 100 to 500 nM.

For `CC(=O)Nc1nnc([C@H]2CCC[C@H](c3nnc(NC(=O)Cc4cccc(N5CC(F)(F)C5)n4)s3)C2)s1` [Compound 281, N-(5-((1S,3S)-3-(5-acetamido-1,3,4-thiadiazol-2-yl)cyclohexyl)-1,3,4-thiadiazol-2-yl)-2-(6-(3,3-difluoroazetidin-1-yl)pyridin-2-yl)acetamide], the IC50 is less than 100 nM.

The molecule `COc1ccccc1CC(=O)Nc1nnc([C@H]2CC[C@H](c3nnc(NC(=O)Cc4ccccc4OC)s3)C2)s1` [Compound 284, N,N′-(5,5′-((1S,3S)-cyclopentane-1,3-diyl)bis(1,3,4-thiadiazole-5,2-diyl))bis(2-(2-methoxyphenyl)acetamide)] came in with an IC50 of less than 100 nM.

`O=C(Cc1ccccc1)Nc1nnc(C2CCCC(c3nnc(NC(=O)Cc4ccccc4)s3)C2)s1` (stereo not shown) [Compound 36] returned an IC50 of 1000 to 2000 nM.

`CSCC(=O)Nc1nnc([C@H]2CCC[C@H](c3nnc(NC(=O)CSC)s3)C2)s1` [Compound 60, N,N′-(5,5′-((1S,3S)-cyclohexane-1,3-diyl)bis(1,3,4-thiadiazole-5,2-diyl))bis(2-(methylthio)acetamide)] had a 50% inhibitory concentration (IC50) of 500 to 1000 nM.

As to `COc1cccc(CC(=O)Nc2nnc([C@@H]3CC[C@@H](c4nnc(NC(=O)Cc5cccc(OC)c5)s4)C3)s2)c1` [Compound 108], the half-maximal inhibitory concentration (IC50) was less than 100 nM.

Molecule `O=C(Cc1cccc(N2CCC2)c1)Nc1nnc([C@H]2CCC[C@H](c3nnc(NC(=O)Cc4cccc(N5CCC5)c4)s3)C2)s1` [Compound 257, N,N′-(5,5′-((1S,3S)-cyclohexane-1,3-diyl)bis(1,3,4-thiadiazole-5,2-diyl))bis(2-(3-(azetidin-1-yl)phenyl)acetamide)] returned an IC50 of less than 100 nM.

`CCOc1ccc(CC(=O)Nc2nnc([C@H]3CCC[C@H](c4nnc(NC(=O)Cc5ccc(OCC)cn5)s4)C3)s2)nc1` [Compound 226, N,N′-(5,5′-((1S,3S)-cyclohexane-1,3-diyl)bis(1,3,4-thiadiazole-5,2-diyl))bis(2-(5-ethoxypyridin-2-yl)acetamide)]: the IC50 is less than 100 nM.

Molecule `COCCOc1ccc(CC(=O)Nc2nnc([C@H]3CCC[C@H](c4nnc(NC(=O)Cc5cccc(N6CC(F)(F)C6)n5)s4)C3)s2)nc1` [Compound 280, 2-(6-(3,3-difluoroazetidin-1-yl)pyridin-2-yl)-N-(5-((1S,3S)-3-(5-(2-(5-(2-methoxyethoxy)pyridin-2-yl)acetamido)-1,3,4-thiadiazol-2-yl)cyclohexyl)-1,3,4-thiadiazol-2-yl)acetamide] gave an IC50 of less than 100 nM.

The molecule `O=C(Cc1cccc2[nH]ccc12)Nc1nnc([C@H]2CCC[C@H](c3nnc(NC(=O)Cc4cccc5[nH]ccc45)s3)C2)s1` [Compound 24, N,N′-(5,5′-((1S,3S)-cyclohexane-1,3-diyl)Obis(1,3,4-thiadiazole-5,2-diyl))bis(2-(1H-indol-4-yl)acetamide)] displayed an IC50 of less than 100 nM.

Consider `CCC(=O)Nc1nnc([C@H]2CCC[C@H](c3nnc(NC(=O)Cc4cccc(N5CC(F)(F)C5)n4)s3)C2)s1` [Compound 282, N-(5-((1S,3S)-3-(5-(2-(6-(3,3-difluoroazetidin-1-yl)pyridin-2-yl)acetamido)-1,3,4-thiadiazol-2-yl)cyclohexyl)-1,3,4-thiadiazol-2-yl)propionamide], for which the IC50 is less than 100 nM.

For the molecule `O=C(Cc1ccccn1)Nc1nnc(CC2CC(Cc3nnc(NC(=O)Cc4ccccn4)s3)C2)s1` (stereo not shown) [Compound 7, N,N′-(5,5′-(cyclobutane-1,3-diylbis(methylene))bis(1,3,4-thiadiazole-5,2-diyl))bis(2-(pyridin-2-yl)acetamide)], the IC50 lay within 2000 to 10000 nM.

As for `O=C(Cc1c[nH]cn1)Nc1nnc([C@H]2CCC[C@H](c3nnc(NC(=O)Cc4c[nH]cn4)s3)C2)s1` [Compound 273, N,N′-(5,5′-((1S,3S)-cyclohexane-1,3-diyl)bis(1,3,4-thiadiazole-5,2-diyl))bis(2-(1H-imidazol-4-yl)acetamide)], the IC50 was less than 100 nM.

In turn, `O=C(Cc1cccc(Br)c1)Nc1nnc([C@H]2CCC[C@H](c3nnc(NC(=O)Cc4cccc(Br)c4)s3)C2)s1` [Compound 220, N,N′-(5,5′-((1S,3S)-cyclohexane-1,3-diyl)bis(1,3,4-thiadiazole-5,2-diyl))bis(2-(3-bromophenyl)acetamide)] came in with a half-inhibitory concentration (IC50) of 100 to 500 nM.

Regarding `COc1cccnc1CC(=O)Nc1nnc([C@H]2CCC[C@H](c3nnc(NC(=O)Cc4ncccc4OC)s3)C2)s1` (racemic) [Compound 116], the IC50 is less than 100 nM.

Regarding `Nc1nc(CC(=O)Nc2nnc([C@H]3CCC[C@H](c4nnc(NC(=O)Cc5csc(N)n5)s4)C3)s2)cs1` [Compound 274, N,N′-(5,5′-((1S,3S)-cyclohexane-1,3-diyl)bis(1,3,4-thiadiazole-5,2-diyl))bis(2-(2-aminothiazol-4-yl)acetamide)], the IC50 was less than 100 nM.

For `COc1ccc(CC(=O)Nc2nnc([C@H]3CCC[C@H](c4nnc(NC(=O)Cc5ccc(OC)nc5)s4)C3)s2)cn1` [Compound 221, N,N′-(5,5′-((1S,3S)-cyclohexane-1,3-diyl)bis(1,3,4-thiadiazole-5,2-diyl))bis(2-(6-methoxypyridin-3-yl)acetamide)], the IC50 was less than 100 nM.

For `CC(=O)Nc1nnc([C@@H]2CCC[C@@H](c3nnc(NC(=O)Cc4ccccn4)s3)C2)s1` [Compound 26], the IC50 fell in the range of 100 to 500 nM.

`CC(C)C(=O)Nc1nnc([C@@H]2CCC[C@@H](c3nnc(NC(=O)C(C)C)s3)C2)s1` [Compound 38] came in with a half-maximal inhibitory concentration (IC50) of 100 to 500 nM.
